Test results reported in patent US20240059703A1 (AMGEN INC., priority 2021, published 2024).
pIC50: −log10 of the molar value.

Key:
[1] = tested on: A549 (human lung carcinoma) cells; test: Cell Viability Assay (CellTiter-Glo), A549; format: cell-based
In short: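 RPMI 1640/10% FBS; seed 1.67E+04 cells/mL, o/n 37° C., 5% CO2; serial-dilution cmpd 72 h; CellTiter-Glo luminescence vs DMSO; 4-parameter logistic fit → IC50.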

[2] = tested on: MIA PaCa-2 (human pancreatic carcinoma) cells; test: Cell Viability Assay (CellTiter-Glo), MIA PaCa-2; format: cell-based
Protocol: Serially-diluted compound or DMSO was added to the cells, and plates were incubated at 37° C., 5% CO2 for 72 h. Cell viability was measured using a CellTiter-Glo® Luminescent Cell Viability Assay kit (Promega) according to the manufacturer's protocol. The luminescence signal of treated samples was normalized to DMSO control, and data were analyzed using a 4-parameter logistic model to calculate IC50 values.

[3] = biological target: KRAS G12C (Homo sapiens (Human), UniProt P01116, C118A/G12C); test: 2 h coupled exchange assay; format: biochemical; conditions: Avg 2 h Coupled exchange IC50, 2 h compound pre-incubation
Protocol: The term “2 h coupled exchange assay” or “20 h coupled exchange assay” as used herein refers to the assay described in the Section entitled “BIOLOGICAL EVALUATION.”

[4] = SOS-mediated nucleotide exchange

KRAS G12C, sequence (P01116 other isoform, or with tags, fused parts or gaps G12C/C118A): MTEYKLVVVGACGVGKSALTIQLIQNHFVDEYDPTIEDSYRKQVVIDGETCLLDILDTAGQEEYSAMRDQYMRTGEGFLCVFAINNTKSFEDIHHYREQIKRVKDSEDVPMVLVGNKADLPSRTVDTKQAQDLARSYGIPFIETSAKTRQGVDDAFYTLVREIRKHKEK

| pIC50 ([1]; 72 h) | pIC50 ([2]; 72 h) | pIC50 [3] | pIC50 ([1]; Homo sapiens, A549, 72 h) | pIC50 ([2]; Homo sapiens, MIA PaCa-2, 72 h) | pIC50 [3, 4] | Compound |
| --- | --- | --- | --- | --- | --- | --- |
| 4.87 | 5.13 | 5.49 | – | – | – | C=CC(=O)N1CC2(CCN(c3nc4c(c(-c5cc(O)ccc5Cl)c3C#N)CCN(c3scnc3C)C4)C2)C1 (single isomer, unassigned) [Example 21-25, (M)-4-(2-chloro-5-hydroxyphenyl)-7-(4-methyl-1,3-thiazol-5-yl)-2-(2-(2-propenoyl)-2,6-diazaspiro[3.4]octan-6-yl)-5,6,7,8-tetrahydro-1,7-naphthyridine-3-carbonitrile] |
| – | – | 7.42 | < 5.30 | 6.23 | – | C=CC(=O)N1CC2(CCN(c3nc4c(c(-c5cccc(C)c5C)n3)CC[C@@H](c3scnc3C)C4)C2)C1 (single isomer, unassigned) [Example 22-1] |
| – | – | 6.15 | < 4.60 | 5.28 | – | C=CC(=O)N1CC2(CCN(c3nc4c(c(-c5cccc(C)c5C)n3)CC[C@H](c3scnc3C)C4)C2)C1 (single isomer, unassigned) [Example 22-2] |
| – | 5.60 | 6.97 | < 5.30 | – | – | C=CC(=O)N1CC2(CCN(c3nc4c(c(-c5ccccc5C)c3C#N)CC[C@@H](c3scnc3C)C4)C2)C1 (single isomer, unassigned) [Example 23-3] |
| – | 6.74 | 7.72 | 4.96 | – | – | C=CC(=O)N1CC2(CCN(c3nc4c(c(-c5ccccc5C)c3C#N)CC[C@H](c3scnc3C)C4)C2)C1 (single isomer, unassigned) [Example 23-4] |
| 5.42 | 6.97 | 8.10 | – | – | – | C=CC(=O)N1CC2(CCN(c3nc4c(c(-c5ccccc5C)c3C#N)CC[C@@H](c3scnc3C)C4)C2)C1 (single isomer, unassigned) [Example 23-5] |
| 4.89 | 5.47 | 6.89 | – | – | – | C=CC(=O)N1CC2(CCN(c3nc4c(c(-c5ccccc5C)c3C#N)CC[C@H](c3scnc3C)C4)C2)C1 (single isomer, unassigned) [Example 23-6] |
| – | – | 7.04 | 5.47 | 5.97 | – | C=CC(=O)N1CC2(CCN(c3nc4c(c(-c5ccccc5C)c3C#N)CCC(c3scnc3C)=C4)C2)C1 (single isomer, unassigned) [Example 23-23, (M)-4-(2-methylphenyl)-7-(4-methyl-1,3-thiazol-5-yl)-2-(2-(2-propenoyl)-2,6-diazaspiro[3.4]octan-6-yl)-5,6-dihydro-3-quinolinecarbonitrile] |
| < 5.30 | 6.15 | 7.15 | – | – | – | C=CC(=O)N1CC2(CCN(c3nc4c(c(-c5ccccc5C)c3C#N)CCC(c3scnc3C)=C4)C2)C1 (single isomer, unassigned) [Example 23-24, (P)-4-(2-methylphenyl)-7-(4-methyl-1,3-thiazol-5-yl)-2-(2-(2-propenoyl)-2,6-diazaspiro[3.4]octan-6-yl)-5,6-dihydro-3-quinolinecarbonitrile] |
| < 5.30 | 6.32 | 6.71 | – | – | – | C=CC(=O)N1CC2(CCN(c3nc4c(c(-c5ncccc5C)c3C#N)CCC(c3scnc3C)=C4)C2)C1 (single isomer, unassigned) [Example 23-25, (P)-4-(3-methyl-2-pyridinyl)-7-(4-methyl-1,3-thiazol-5-yl)-2-(2-(2-propenoyl)-2,6-diazaspiro[3.4]octan-6-yl)-5,6-dihydro-3-quinolinecarbonitrile] |
| 4.89 | 5.77 | 6.26 | – | – | – | C=CC(=O)N1CC2(CCN(c3nc4c(c(-c5ncccc5C)c3C#N)CCC(c3scnc3C)=C4)C2)C1 (single isomer, unassigned) [Example 23-26, (M)-4-(3-methyl-2-pyridinyl)-7-(4-methyl-1,3-thiazol-5-yl)-2-(2-(2-propenoyl)-2,6-diazaspiro[3.4]octan-6-yl)-5,6-dihydro-3-quinolinecarbonitrile] |
| – | 5.62 | 6.49 | 5.24 | – | – | C=CC(=O)N1CC2(CCN(c3nc4c(c(-c5ccccc5Cl)c3C#N)CCC(c3scnc3C)=C4)C2)C1 (single isomer, unassigned) [Example 23-41, (M)-4-(2-chlorophenyl)-7-(4-methyl-1,3-thiazol-5-yl)-2-(2-(2-propenoyl)-2,6-diazaspiro[3.4]octan-6-yl)-5,6-dihydro-3-quinolinecarbonitrile] |
| < 5.30 | 6.25 | 7.18 | – | – | – | C=CC(=O)N1CC2(CCN(c3nc4c(c(-c5ccccc5Cl)c3C#N)CCC(c3scnc3C)=C4)C2)C1 (single isomer, unassigned) [Example 23-42, (P)-4-(2-chlorophenyl)-7-(4-methyl-1,3-thiazol-5-yl)-2-(2-(2-propenoyl)-2,6-diazaspiro[3.4]octan-6-yl)-5,6-dihydro-3-quinolinecarbonitrile] |
| – | 5.92 | 7.42 | < 5.30 | – | – | C=CC(=O)N1CC2(CCN(c3nc4c(c(-c5c(O)cccc5F)c3C#N)CCC(c3scnc3C)=C4)C2)C1 (single isomer, unassigned) [Example 23-50, (P)-4-(2-fluoro-6-hydroxyphenyl)-7-(4-methyl-1,3-thiazol-5-yl)-2-(2-(2-propenoyl)-2,6-diazaspiro[3.4]octan-6-yl)-5,6-dihydro-3-quinolinecarbonitrile] |
| 5.02 | 5.21 | 3.90 | – | – | – | C=CC(=O)N1CC2(CCN(c3nc4c(c(-c5c(O)cccc5F)c3C#N)CCC(c3scnc3C)=C4)C2)C1 (single isomer, unassigned) [Example 23-51, (M)-4-(2-fluoro-6-hydroxyphenyl)-7-(4-methyl-1,3-thiazol-5-yl)-2-(2-(2-propenoyl)-2,6-diazaspiro[3.4]octan-6-yl)-5,6-dihydro-3-quinolinecarbonitrile] |
| – | – | – | 5.13 | 5.08 | 6.36 | C=CC(=O)N1CC2(CCN(c3nc4c(c(-c5c(C)ccc6[nH]ncc56)c3C#N)CCC(C)(C)C4)[C@@H]2CF)C1 (stereo in doubt) [Example 13-79, (M)-2-((5R)-5-(fluoromethyl)-2-(2-propenoyl)-2,6-diazaspiro[3.4]octan-6-yl)-7,7-dimethyl-4-(5-methyl-1H-indaazol-4-yl)-5,6,7,8-tetrahydro-3-quinolinecarbonitrile and (P)-((5S)-5-(fluoromethyl)-2-(2-propenoyl)-2,6-diazaspiro[3.4]octan-6-yl)-7,7-dimethyl-4-(5-methyl-1H-indazol-4-yl)-5,6,7,8-tetrahydro-3-quinolinecarbonitrile] |
| – | – | – | < 5.30 | 6.02 | 7.35 | C=CC(=O)N1CC2(CCN(c3nc4c(c(-c5c(C)ccc6[nH]ncc56)c3C#N)CCC(C)(C)C4)[C@H]2CF)C1 (stereo in doubt) [Example 13-80, (M)-2-((5S)-5-(fluoromethyl)-2-(2-propenoyl)-2,6-diazaspiro[3.4]octan-6-yl)-7,7-dimethyl-4-(5-methyl-1H-indazol-4-yl)-5,6,7,8-tetrahydro-3-quinolinecarbonitrile and (P)-2-((5R)-5-(fluoromethyl)-2-(2-propenoyl)-2,6-diazaspiro[3.4]octan-6-yl)-7,7-dimethyl-4-(5-methyl-1H-indazol-4-yl)-5,6,7,8-tetrahydro-3-quinolinecarbonitrile] |
| – | – | – | 4.98 | 6.24 | 7.04 | C=CC(=O)N1CC2(CCN(c3nc4c(c(-c5cc(O)ccc5C)c3C#N)[C@H]3CC[C@@H]4C3)C2)C1 (stereo in doubt) [Example 14-9, (1R,8S)-6-(5-hydroxy-2-methylphenyl)-4-(2-(2-propenoyl)-2,6-diazaspiro[3.4]octan-6-yl)-3-azatricyclo[6.2.1.0^2,7]undeca-2,4,6-triene-5-carbonitrile] |
| – | – | – | < 5.30 | < 5.30 | 6.37 | C=CC(=O)N1CC2(CCN(c3nc4c(c(-c5cc(O)cc6ccccc56)n3)CCCC4)C2)C1 [Example 1-1, 1-(6-(4-(3-hydroxynaphthalen-1-yl)-5,6,7,8-tetrahydroquinazolin-2-yl)-2,6-diazaspiro[3.4]octan-2-yl)prop-2-en-1-one] |
| – | – | – | 5.43 | 6.24 | 6.80 | C=CC(=O)N1CC2(CCN(c3cc4ccccc4c(-c4c(C)ccc5[nH]ncc45)c3C#N)C2)C1 [Example 1-2, 3-(2-acryloyl-2,6-diazaspiro[3.4]octan-6-yl)-1-(5-methyl-1H-indazol-4-yl)-2-naphthonitrile] |
| – | – | – | 5.13 | 6.07 | 6.81 | C=CC(=O)N1CC2(CCN(c3nc4c(c(-c5c(C)ccc6[nH]ncc56)c3C#N)CCC4)C2)C1 [Example 1-3, 4-(5-methyl-1H-indazol-4-yl)-2-(2-(2-propenoyl)-2,6-diazaspiro[3.4]octan-6-yl)-6,7-dihydro-5H-cyclopenta[b]pyridine-3-carbonitrile] |
| – | – | – | 5.31 | 5.86 | 6.54 | C=CC(=O)N1CC2(CCN(c3nc4c(F)cccc4c(-c4c(C)ccc5[nH]ncc45)c3C#N)C2)C1 [Example 1-4, 8-fluoro-4-(5-methyl-1H-indazol-4-yl)-2-(2-(2-propenoyl)-2,6-diazaspiro[3.4]octan-6-yl)-3-quinolinecarbonitrile] |
| – | – | – | 4.30 | 5.79 | 6.28 | C=CC(=O)N1CC2(CCN(c3cn4ccnc4c(-c4c(C)ccc5[nH]ncc45)c3C#N)C2)C1 [Example 1-5] |
